Measured values reported in patent publication US11866401B2, “Salicyl fumarate derivative and its application in the treatment of Parkinson's disease and other neurodegenerative diseases” (CHONGQING NEUROPARK BIOSCIENCE CO., LTD., priority 2017, dated 2024).
Counter-ions that a name gives are not always drawn.

How the values were obtained:
[1] = system: MPTP-induced dopaminergic neuron-damaged PD mouse models; assay: MPTP-induced dopaminergic neuron damage PD mouse model, dose response protection and safety; format: in vivo, mice; conditions: for lowest dosage for protective effect: dopamine neuron protection; for dosage where toxic effects began to appear: mouse, in vivo, ip
Protocol: Using MSF and ESF to conduct therapeutic studies with widely accepted MPTP-induced dopaminergic neuron-damaged PD mouse models. […] For the experimental groups of MSF and ESF, 10 dose groups were used for each drug. 10 mice in each group. Both the experimental group and the control group used intraperitoneal administration. The control group was treated with DMF. Statistically significant protective effects of dopamine neurons were found, and the dose-effect relationship was observed.

[2] = system: Nrf2 knockout mice with MPTP-induced dopaminergic neuronal damage; assay: MPTP experiments on transgenic mice with the Nrf2 gene knocked out; format: in vivo
Text: Inferring from the inclusion of salicyl in their molecule structure, this new target may be associated with anti-neuroinflammation.

glutathione (GSH) = assay: In vitro cell experiments, intracellular glutathione concentration; format: cell-based
MS patients [3] = conditions: DEFINE; cited from earlier work
MS patients [4] = conditions: CONFIRM; cited from earlier work
[5] = system: MPTP-induced mouse PD models; conditions: cited from earlier work
[6] = system: models of chronic MPTP-induced dopamine neuron damage in mice; assay: Chronic MPTP-induced dopamine neuron damage in mice; format: in vivo; conditions: 200 mg/kg/d, chronic MPTP model
[7] = HPLC level of MSF and ESF in peripheral blood, liver and brain tissue after intraperitoneal injection; format: in vivo; conditions: after intraperitoneal injection in mice
Text: Unlike the positive control drug DMF which worked differently.

glutathione = conditions: unlike DMF; cited from earlier work
[8] = Preliminary experiments on pharmacological activities; conditions: compared with methyl and ethyl salicyl fumarate
Text: 7. The applicants used the same fore-mentioned synthesis routes to perform esterification of salicylic acid and fumarate esters. They obtained propyl salicyl fumarate (compound structural formula shown as C), isopropyl salicyl fumarate (compound structural formula shown as D), and butyl salicyl fumarate (compound structural formula shown as E) respectively.

[9] = intraperitoneal administration, MPTP mice

COC(=O)/C=C/C(=O)OC [DMF, dimethyl fumarate, reference compound]
dosage where DMF showed toxic effect [1, 9]: > 200 mg
lowest dosage for protective effect [1, 9]: 50 mg/kg/day
dopaminergic neuron protective effect [2]: lost the dopaminergic neuron protective effect
effect on glutathione concentration in the cell (glutathione (GSH)): had the effect of depleting glutathione
reduction in occurrences of disability (MS patients [3]): 38%
reduction in occurrences of recurrence (MS patients [3]): 49%
reduction in recurrence (MS patients [4]): 34%
protective effects against the neural toxicity of MPTP [5]: exhibit protective effects against the neural toxicity of MPTP

CCOC(=O)/C=C/C(=O)OCc1ccccc1O [ESF, ethyl salicyl fumarate]
protective effects of dopamine neurons compared to DMF [1, 9]: more significant protective effects
lowest dosage for protective effect [1, 9]: 10 mg/kg/day
dosage where toxic effects began to appear [1]: > 500 mg/kg/day
dopamine neuron protection [6]: significant dopamine neuron protection
entry into the brain through the blood-brain barrier [7]: can enter the brain through the blood-brain barrier
molecular structure in the brain [7]: remains unchanged in the brain
dopaminergic neuron protective effect [2]: still show significant protective effects
effect on glutathione concentration in the cell (glutathione (GSH)): no effect on the concentration of glutathione in the cell

COC(=O)/C=C/C(=O)O [MMF, monomethyl fumarate]
glutathione consumption, inhibition of mitochondrial and glycolysis functions (glutathione): does not consume glutathione and inhibit mitochondrial and glycolysis functions

COC(=O)/C=C/C(=O)OCc1ccccc1O [MSF, methyl salicyl fumarate]
protective effects of dopamine neurons compared to DMF [1, 9]: more significant protective effects
lowest dosage for protective effect [1, 9]: 10 mg/kg/day
dosage where toxic effects began to appear [1]: > 500 mg/kg/day
dopamine neuron protection [6]: significant dopamine neuron protection
entry into the brain through the blood-brain barrier [7]: can enter the brain through the blood-brain barrier
molecular structure in the brain [7]: remains unchanged in the brain
dopaminergic neuron protective effect [2]: still show significant protective effects
effect on glutathione concentration in the cell (glutathione (GSH)): no effect on the concentration of glutathione in the cell

CCCCOC(=O)/C=C/C(=O)Oc1ccccc1C(=O)O [butyl salicyl fumarate]
pharmacological activities [8]: lower than those of methyl salicyl fumarate and ethyl salicyl fumarate

CC(C)OC(=O)/C=C/C(=O)Oc1ccccc1C(=O)O [isopropyl salicyl fumarate]
pharmacological activities [8]: lower than those of methyl salicyl fumarate and ethyl salicyl fumarate

CCCOC(=O)/C=C/C(=O)Oc1ccccc1C(=O)O [propyl salicyl fumarate]
pharmacological activities [8]: lower than those of methyl salicyl fumarate and ethyl salicyl fumarate
